Test results reported in ChEMBL document CHEMBL1201862, “PubChem BioAssay data set” (2004).
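Values below derive from 48-hour exposures of cells grown in 96-well plates, with endpoints linearly interpolated between the two concentrations bracketing the appropriate inhibition level. Abbreviation: GI50, concentration required for 50% inhibition of growth.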 The source made the active and inactive calls. Rule as the data show it: active = GI50 up to about 1.1 µM and inactive = higher.

Assays:
Experiment in all cases: NCI tumour cell line growth inhibition, 48 h
[1] = test system: MDA-N
[2] = test system: M19-MEL
[3] = test system: DLD-1
[4] = test system: DMS-273
[5] = test system: SNB-78
[6] = test system: XF498
[7] = test system: HOP-18
[8] = test system: KM-20L2
[9] = test system: RXF 631

SMILES	GI50 [1]	GI50 [2]	GI50 [4]	GI50 [8]	other results
c1ccc(CCCNc2nnnc3ccccc23)cc1	69 µM (inactive)	–	–	–	–
COc1ccc(C(=O)NCCN(C)C)c2nc3ccccc3cc12	1.46 µM (inactive)	–	–	–	–
CC(NC(=O)C(NC(=O)CNC(=O)OC(C)(C)C)C(C)C)C(=O)Oc1c(Cl)c(Cl)c(Cl)c(Cl)c1Cl (centres undefined)	25.1 µM (inactive)	–	–	–	–
CC1(CO)C(O)CCC2(C)C1C(O)CC1CC3CC12CCC3(O)CO (centres undefined)	–	> 153 µM (inactive)	104 µM (inactive)	> 225 µM (inactive)	GI50 [3]: > 225 µM (inactive); GI50 [5]: > 225 µM (inactive); GI50 [6]: 29.6 µM (inactive); GI50 [7]: > 225 µM (inactive)
CCCCNC(=S)Nc1nc(C(=O)NNC(=S)NCC)cs1	82 µM (inactive)	–	–	–	–
COc1ccc(-n2cnc3c(NC(Cc4ccccc4)C(=O)O)ncnc32)cc1 (centres undefined)	> 100 µM (inactive)	–	–	–	–
CC1=CC2=C(C=O)C(=O)[C@](C)(O)[C@@H](O)C2=CO1	–	22.4 µM (inactive)	28.9 µM (inactive)	1.21 µM (inactive)	GI50 [3]: 28.9 µM (inactive); GI50 [5]: 38.5 µM (inactive); GI50 [6]: > 54.3 µM (inactive); GI50 [7]: > 54.5 µM (inactive)
COC(=O)C1=C(OC(=O)/C(=C/c2ccc(Cl)cc2)c2ccc(Cl)cc2)C(C(=O)OC)[C@@]2(O)[C@@H](C(=O)OC)[C@H](C)C[C@@H]1[C@@H]2C(=O)OC (some centres undefined)	> 100 µM (inactive)	–	–	–	–
CCCCNc1nc2ccccc2c2c1ncn2CC(C)C	> 100 µM (inactive)	–	–	–	–
N#Cc1c(N2CCCC2)nsc1Nc1ccccc1	> 100 µM (inactive)	–	–	–	–
Cc1ccccc1NC(=O)c1ccc([N+](=O)[O-])cc1	–	> 100 µM (inactive)	80.5 µM (inactive)	> 100 µM (inactive)	GI50 [3]: > 100 µM (inactive); GI50 [5]: > 100 µM (inactive); GI50 [6]: > 100 µM (inactive); GI50 [7]: > 100 µM (inactive)
COc1cc(Nc2nc3cc(C(F)(F)F)ccc3nc2C)cc(OC)c1OC	–	–	5.2 µM (inactive)	–	GI50 [3]: 7.1 µM (inactive); GI50 [5]: 11.1 µM (inactive); GI50 [6]: 2.3 µM (inactive); GI50 [7]: < 0.01 µM (active)
CCN(CC)c1ccc2cc(-c3csc(-c4ccc(N(C)C)cc4)n3)c(=O)oc2c1	> 100 µM (inactive)	–	–	–	–
CC[C@@]1(OC(=O)C(N)CCC(=O)O)C(=O)OCc2c1cc1n(c2=O)Cc2cc3ccccc3nc2-1 (some centres undefined)	0.314 µM (active)	0.189 µM (active)	0.0183 µM (active)	0.474 µM (active)	GI50 [3]: 1.48 µM (inactive); GI50 [5]: 1.82 µM (inactive); GI50 [6]: 0.197 µM (active); GI50 [7]: 0.217 µM (active)
COC1(C(C)(C)C)C=C(C(C)(C)C)P(=O)(O)O1 (centres undefined)	> 100 µM (inactive)	–	–	–	–
CC1(C)CC2C(C1=O)C1(C)CCCC2(C)C1=O (centres undefined)	> 100 µM (inactive)	–	–	–	–
O=C(Cn1c(=O)oc2ccc(C(=O)c3ccc(F)cc3)cc21)c1ccccc1	> 100 µM (inactive)	–	–	–	–
CN(Cc1c[n+]([O-])c2nc(N)nc(N)c2n1)c1ccc(C(=O)NC23CC4CC(CC(C4)C2)C3)cc1	70.6 µM (inactive)	–	–	–	–
Cc1ccc(S(=O)(=O)N2CC2CCCCC=O)cc1 (centres undefined)	> 100 µM (inactive)	–	–	–	–
O=C1C(c2ccccc2)=C(O)c2cccc3cccc1c23	–	> 100 µM (inactive)	> 100 µM (inactive)	> 100 µM (inactive)	GI50 [5]: > 100 µM (inactive); GI50 [6]: > 100 µM (inactive); GI50 [7]: 33.6 µM (inactive)
O=C(NC1C(=O)NNC1c1ccccc1Cl)c1ccccc1 (centres undefined)	–	> 100 µM (inactive)	> 100 µM (inactive)	> 100 µM (inactive)	GI50 [3]: > 100 µM (inactive); GI50 [6]: > 100 µM (inactive); GI50 [7]: > 100 µM (inactive)

SMILES	GI50 [1]	GI50 [2]	GI50 [4]	GI50 [8]	other results
COc1ccc(/C(=N\Nc2ccccn2)c2ccccn2)cc1	0.631 µM (active)	–	–	–	–
O=C1C(=O)N(C(=O)c2ccc(Cl)c(Cl)c2)c2ccc(Cl)cc21	–	18.8 µM (inactive)	> 100 µM (inactive)	–	GI50 [3]: 73.5 µM (inactive); GI50 [5]: > 100 µM (inactive); GI50 [7]: > 100 µM (inactive)
O=c1c(F)cn(Cc2c(Cl)cccc2Cl)c(=O)n1Cc1c(Cl)cccc1Cl	> 31.6 µM (inactive)	–	–	–	–
CCN(CC)CC1CCCCN1CC(=O)N1CC(C)C(=O)Nc2ccccc21 (centres undefined)	–	> 100 µM (inactive)	> 100 µM (inactive)	> 100 µM (inactive)	GI50 [3]: > 100 µM (inactive); GI50 [7]: > 100 µM (inactive)
C1CCN2CC3CCCN4CCCC(C2C1)C34 (centres undefined)	> 100 µM (inactive)	–	–	–	–
C[C@]1(O)CC(=O)c2c(c(-c3ccc4cc5c(c(O)c4c3O)C(=O)C[C@@](C)(O)C5)c3cccc(O)c3c2O)C1	4.56 µM (inactive)	–	–	–	–
O=c1nc(N2CCN(c3ccccc3)CC2)ccn1C1OC(CO)C(O)C1O (centres undefined)	56.8 µM (inactive)	–	–	–	–
Cc1nc(Nc2nnc(-c3cc([N+](=O)[O-])cc([N+](=O)[O-])c3C)o2)sc1C(=O)CC(=O)Cc1nc2ccc(Cl)cc2nc1O	–	> 100 µM (inactive)	50.5 µM (inactive)	> 100 µM (inactive)	GI50 [5]: 93.5 µM (inactive); GI50 [6]: > 100 µM (inactive)
CN(C)C(=S)/N=C1\SC(=N\c2ccccc2)/C(=N/c2ccccc2)N1c1ccc([N+](=O)[O-])cc1	> 100 µM (inactive)	–	–	–	–
[N-]=[N+]=Nc1c(Cl)c(Cl)nc2ccccc12	> 100 µM (inactive)	–	–	–	–
O=C(c1ccco1)N(C(=S)N1CCN(c2ccccc2)CC1)C1CCCCC1	–	> 100 µM (inactive)	59.4 µM (inactive)	90.4 µM (inactive)	GI50 [3]: 85.1 µM (inactive); GI50 [5]: > 100 µM (inactive); GI50 [7]: > 100 µM (inactive)
O=C(Cc1ccc(Cl)c(Cl)c1)NCC1(N2CCCCC2)CCCCC1	37 µM (inactive)	–	–	–	–
C1CSC2=C(S1)SC1=C(S2)SC(=C2SC3=C(SC4=C(SCCS4)S3)S2)S1	> 100 µM (inactive)	–	–	–	–
COc1ccc(/C=C/C(=O)c2cc(C(=O)O)c(OC)cc2OC)cc1OC	–	> 100 µM (inactive)	> 100 µM (inactive)	> 100 µM (inactive)	GI50 [3]: > 100 µM (inactive); GI50 [5]: > 100 µM (inactive); GI50 [7]: > 100 µM (inactive)
NCCCCCCn1c(-c2ccc(Br)cc2)cs/c1=N\c1ccccc1	6.28 µM (inactive)	–	–	–	–
Cc1c/c(=N\c2ccc3c(c2)c(N)cc(C)[n+]3C)nc(N)n1C	> 100 µM (inactive)	–	–	–	–
COc1ccc(C(O)c2ccccn2)cc1 (centres undefined)	> 100 µM (inactive)	–	–	–	–
N#CC1(C#N)C2CCCCC23OC(=N)C1(C#N)C(c1ccccc1)O3 (centres undefined)	14 µM (inactive)	–	–	–	–
Clc1ccc(OCC2NC3C=CC32)cn1 (centres undefined)	> 100 µM (inactive)	–	–	–	–
OC(CC1SCCCS1)c1ccccc1 (centres undefined)	–	> 100 µM (inactive)	> 100 µM (inactive)	> 100 µM (inactive)	GI50 [3]: > 100 µM (inactive); GI50 [6]: > 100 µM (inactive); GI50 [7]: > 100 µM (inactive)
O=C(O)Cc1ccccc1CCc1ccccc1Cl	–	95.5 µM (inactive)	> 100 µM (inactive)	> 100 µM (inactive)	GI50 [3]: > 100 µM (inactive); GI50 [5]: > 100 µM (inactive); GI50 [6]: > 100 µM (inactive); GI50 [7]: 50.1 µM (inactive)

SMILES	GI50 [1]	GI50 [2]	GI50 [4]	GI50 [8]	other results
COC(=O)C1=C(O)C(C(=O)OC)[C@]2(O)[C@H](C(=O)OC)[C@H]1C[C@@H](c1cccc(OC)c1)[C@H]2C(=O)OC (some centres undefined)	15.6 µM (inactive)	–	–	–	–
Cc1cc(N(CCC#N)CCC#N)ccc1/C=C(\NC(=O)/C=C/c1ccccc1)C(=O)NN	> 100 µM (inactive)	> 100 µM (inactive)	> 100 µM (inactive)	> 100 µM (inactive)	GI50 [3]: > 100 µM (inactive); GI50 [5]: > 100 µM (inactive); GI50 [6]: 25.6 µM (inactive)
Cn1c2c(c3ccccc31)CCN(CCCN1CCN(c3ccccc3)CC1)C2=O	–	19.5 µM (inactive)	21.5 µM (inactive)	12.8 µM (inactive)	GI50 [3]: 19.7 µM (inactive); GI50 [6]: 12.6 µM (inactive); GI50 [7]: 15.5 µM (inactive)
NC(CSC(=O)c1ccccc1)C(=O)O (centres undefined)	> 100 µM (inactive)	–	–	–	–
O=[N+]([O-])c1ccc(O)c(/C=N/CC2CCCN3CCCCC23)c1 (centres undefined)	44.8 µM (inactive)	–	–	–	–
CN1CCN(C(=S)N(C(=O)c2ccc(Cl)cc2)C2CCCCC2)CC1	> 100 µM (inactive)	–	–	–	–
CCOC(=O)N/N=C(/N)c1cccc([N+](=O)[O-])c1	> 100 µM (inactive)	–	–	–	–
COc1ccc2oc(S(=O)(=O)N3CC(CCl)c4ccc([N+](=O)[O-])cc43)cc2c1 (centres undefined)	0.0301 µM (active)	–	–	–	–
O/N=C1/CCCC/C1=C/C=C/c1ccccc1	–	19.7 µM (inactive)	–	18.5 µM (inactive)	GI50 [3]: 29.6 µM (inactive); GI50 [5]: 25.5 µM (inactive); GI50 [7]: 25.8 µM (inactive)
O=[PH](O)c1cc2ccccc2c2ccccc12	–	> 100 µM (inactive)	> 100 µM (inactive)	> 100 µM (inactive)	GI50 [3]: > 100 µM (inactive); GI50 [5]: > 100 µM (inactive); GI50 [7]: > 100 µM (inactive)
COc1cc([N+](=O)[O-])c(S(=O)(=O)O)cc1-n1nc(C(=O)Nc2ccccc2)n[n+]1-c1cc(S(=O)(=O)[O-])c([N+](=O)[O-])cc1OC	> 100 µM (inactive)	–	–	–	–
O=S(=O)(O)c1cc(S(=O)(=O)O)c2c(/N=N/c3ccc(S(=O)(=O)O)c4ccccc34)c(O)ccc2c1	> 100 µM (inactive)	–	–	–	–
Cc1ccc(-n2nnc(C(N)=O)c2O)cc1	> 100 µM (inactive)	–	–	–	–
C=C1C2CC(OC(C)=O)C3(C)C(c4ccoc4)OC(=O)[C@@H](O)[C@]13OC1C[C@H](OC(C)=O)C(C)(C)[C@H](CC(=O)OC)[C@]12C (some centres undefined)	–	> 100 µM (inactive)	> 100 µM (inactive)	> 100 µM (inactive)	GI50 [9]: > 100 µM (inactive); GI50 [5]: > 100 µM (inactive); GI50 [7]: > 100 µM (inactive)
N#C/C(=C\c1ccc(O)c(O)c1)C(N)=O	–	78.7 µM (inactive)	57.7 µM (inactive)	50.4 µM (inactive)	GI50 [3]: 48.2 µM (inactive); GI50 [9]: 56 µM (inactive); GI50 [5]: > 100 µM (inactive)
O=C(Oc1ccccn1)c1cc2cc(CCl)ccc2oc1=O	43.5 µM (inactive)	–	–	–	–
CC(=O)O[C@H]1C[C@H](O[C@H]2[C@@H](O)C[C@H](O[C@H]3[C@@H](O)C[C@H](O[C@H]4CC[C@@]5(C)[C@H](CC[C@@H]6[C@@H]5CC[C@]5(O)[C@@H](C7=CC(=O)OC7)CC[C@]65O)C4)O[C@@H]3C)O[C@@H]2C)O[C@H](C)[C@H]1O[C@@H]1O[C@H](CO)[C@@H](O)[C@H](O)[C@H]1O	0.45 µM (active)	–	–	–	–
O=C1C=CC(=O)N1c1ccc(I)cc1	15.2 µM (inactive)	–	–	–	–
C#C[C@]1(O)CC[C@H]2[C@@H]3CCc4cc(O)ccc4[C@H]3CC[C@@]21C [ETHINYL ESTRADIOL]	–	17.1 µM (inactive)	> 10 µM (inactive)	16.7 µM (inactive)	GI50 [3]: 12.6 µM (inactive); GI50 [5]: 33.4 µM (inactive); GI50 [6]: 28.7 µM (inactive); GI50 [7]: > 100 µM (inactive)
